The values that follow come from patent EP0004516A2, “Pharmaceutical compositions active on the gastro-intestinal motricity” (SCIENCE UNION ET Cie SOCIETE FRANCAISE DE RECHERCHE MEDICALE, priority 1978, dated 1979).

For test [1], the system named is fibre lisse. Kind of test: Anti-serotonin action shown directly on smooth fibre.
In test [2] the test system is ulcère produit par la contrainte. Kind of test: Restraint ulcer protection. It counts as in vivo, animal.
For test [3], the system named is troubles moteurs gastro-duodénaux (dyspepsie hyposthénique en rapport avec un état dépressif psychasthénique). Kind of test: Double-blind cross-over clinical and external digestive electromyographic study versus placebo (Exemple IV). It counts as in vivo, humaine. Here is the method:
Effet normalisateur des compositions à base d'acide 7-[(3-chloro 6-methyl 5,5-dioxo 6,11-dihydrodibenzo (c,f) thiazepin 1,2-11-yl) amino] heptanoique sur les troubles moteurs gastro-duodénaux en clinique humaine.
Evaluer l'efficacité du principe actif dans trois posologies différentes : • .
Les malades ont été divisés en deux groupes de 12 sujets • . Un 1er groupe de 12 cas a reçu successivement et en cross- over 1 comprimé par jour de 12,5mg et de 25mg de PA. (Un malade de ce groupe a abandonné le traitement) • . Un 2ème groupe de 12 cas a reçu successivement et en cross- over 2 comprimés par jour, soit 2 x 12.
Chaque sujet avait au minimum : • 1. Un syndrome dyspeptique hyposténique, avec • - ballonnements • - pesanteur • - somnolence post-prandiale • - brûlures et / ou douleurs épigastriques • - états nauséeux • 2. Ln état dépressif psycnasténique, avec • - dépression • - inhibition psycho-motrice • - asthénie • - anxiété psychique et / ou somatisée • - troubles du sommeil (difficulté à l'endormissement ou réveil précoce) • 3. Un électromyogramme digestif externe pathologique, avec un retard d'apparition des ondes gastriques après le repas (d'au moins 2 heures).
• . Selon la gravité clinique, de 0 à 3 • . Pour l'électromyogramme digestif, chez un sujet normal, les ondes gastriques apparaissent dès l'ingestion d'un repas équilibré et persistent pendant 5 heures en moyenne. Cette situation était côtée 0.
Chez le dyspeptique hyposténique, il existe une absence d'ondes gastriques dans la phase post-prandiale, qui peut durer plus de 3 heures. Cette situation était côtée 2.
Si, après le traitement, la sidération diminuait, elle était côtée 1.
L'examen clinique était répété après chaque passage du produit actif, ou de placebc, soit 5 fois par milade.
En ce qui concerne les tracés EMG, nous avions prévu quatre enregistrements par sujet : avant traitement, après chaque passage de Principe Actif, et après le dernier passage Placebo.

In test [4] the test system is musculature lisse tube digestif. Kind of test: Pharmacological studies: antispasmodic action and restoration of digestive smooth muscle motility.
[5] abbreviates: 1 x 25 mg/jour, 15 jours, Groupe I, 11 cas.
The mark [6] stands for this setting: 1 x 12,5 mg/jour, 15 jours, Groupe I, 11 cas.
[7] abbreviates: 2 x 25mg/jour, 15 jours, Groupe II, 12 cas.
Setting [8] is: 2 x 12,5mg/jour, 15 jours, Groupe II, 12 cas.

Take `CN1c2ccccc2C(NCCCCCCC(=O)O)c2ccc(Cl)cc2S1(=O)=O` (racemic) [principe actif, acide 7-[(3-chloro 6-méthyl 5,5-dioxo 6,11-dihydrodibenzo (c,f)thiazepin 1,2-11-yl)amino] heptanoique]: the “action anti sérotonine” value in test [1] is reported as “très importante”. Further, the “effet anti-secrétoire” value in test [2] (accompanying the protective effect) is listed as “ne s'accompagne pas d'effet anti-secrétoire”. Besides, the “protection contre l'ulcère produit par la contrainte” value in test [2] (in vivo) is listed as “protégeait l'animal contre l'ulcère produit par la contrainte”. For the same compound, in test [3] (setting [5]), the “absence d'effet” value is 18,2% and the “très bon effet thérapeutique global” value was 81,8%. For the same compound, in test [3] (setting [6]), the activité moyenne is reported as 54,6% and the “bonne activité (très nette amélioration de l'ensemble des symptômes digestifs, psychiques, ainsi que des tracés EMG externes)” value was 45,4%. In addition, in test [3] (setting [7]), the activité bonne is 83,3% and the activité moyenne is 16,6%. Also, in test [3] (setting [8]), the “Bon effet thérapeutique global” value is recorded as 66,6% and the effet moyen is 33,3%. The “activité globale par rapport au placebo” value in test [3] (12,5mg, 25mg et 50mg, both groups) is given as “toujours été nettement supérieur au placebo”. Also, in test [4], the action antispasmodique result is recorded as “importante” and the “restauration de la motricité (atonie de la musculature lisse)” value is recorded as “capables de restaurer une motricité constante et bien coordonnée”.
